Assay results as given in article PMC11490238 (Drug Design, Development and Therapy, 2024).

Key:
CYP1A2 [1] = target: T1, CYP1A2 (Homo sapiens, UniProt P05177); experiment: biochemical
T1 sequence (P05177 1-516): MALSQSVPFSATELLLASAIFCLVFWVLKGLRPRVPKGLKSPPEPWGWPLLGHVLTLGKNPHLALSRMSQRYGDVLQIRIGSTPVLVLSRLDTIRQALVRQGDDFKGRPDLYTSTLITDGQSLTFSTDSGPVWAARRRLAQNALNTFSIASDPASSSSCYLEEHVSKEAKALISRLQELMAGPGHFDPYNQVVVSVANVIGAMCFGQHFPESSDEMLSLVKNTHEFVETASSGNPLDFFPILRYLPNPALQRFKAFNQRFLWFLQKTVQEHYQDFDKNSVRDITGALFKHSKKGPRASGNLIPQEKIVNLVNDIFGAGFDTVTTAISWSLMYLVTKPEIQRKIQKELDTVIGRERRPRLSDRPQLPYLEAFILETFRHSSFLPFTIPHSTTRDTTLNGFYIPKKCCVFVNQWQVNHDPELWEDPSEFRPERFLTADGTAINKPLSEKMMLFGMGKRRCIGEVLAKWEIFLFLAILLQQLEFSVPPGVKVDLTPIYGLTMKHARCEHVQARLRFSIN

HLM = conditions: anlotinib as substrate in HLMs
[2] = test system: anlotinib metabolism in HLM; experiment: in vitro; conditions: human, pH 7.4
in vitro = conditions: human, microsomes, pH 7.4
CYP1A2 [3] = target: T1, CYP1A2; conditions: calculated from ISEF (0.69) and CLint,rhCYP
CYP3A5 [4] = target: T2, CYP3A5 (Homo sapiens, UniProt P20815); conditions: calculated from ISEF (0.43) and CLint,rhCYP
[5] = Chinese cancer volunteers; cited from earlier work
P-gp = conditions: previous studies and drug package inserts; cited from earlier work
human recombinant CYP3A4 = human recombinant CYP3A4 (Homo sapiens, UniProt P08684); conditions: calculated from ISEF (0.49) and CLint,rhCYP
[6] = victim erlotinib, cancer subjects; cited from earlier work
CYP3A5 [7] = target: T2, CYP3A5; experiment: biochemical

T2 sequence (P20815 whole entry): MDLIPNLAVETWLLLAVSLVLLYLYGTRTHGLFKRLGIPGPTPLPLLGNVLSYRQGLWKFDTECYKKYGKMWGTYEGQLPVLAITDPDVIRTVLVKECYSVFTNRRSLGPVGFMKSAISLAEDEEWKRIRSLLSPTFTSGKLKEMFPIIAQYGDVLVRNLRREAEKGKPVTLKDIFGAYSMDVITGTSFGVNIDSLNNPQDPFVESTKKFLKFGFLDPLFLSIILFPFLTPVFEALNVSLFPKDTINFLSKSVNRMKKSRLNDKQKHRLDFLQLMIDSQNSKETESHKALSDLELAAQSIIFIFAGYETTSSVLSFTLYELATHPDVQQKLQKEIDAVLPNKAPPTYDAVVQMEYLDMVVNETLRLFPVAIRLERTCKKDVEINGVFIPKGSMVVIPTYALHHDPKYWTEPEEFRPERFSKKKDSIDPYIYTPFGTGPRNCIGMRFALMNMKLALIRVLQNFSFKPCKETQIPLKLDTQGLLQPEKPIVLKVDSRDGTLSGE
Sequence of human recombinant CYP3A4 (P08684 whole entry): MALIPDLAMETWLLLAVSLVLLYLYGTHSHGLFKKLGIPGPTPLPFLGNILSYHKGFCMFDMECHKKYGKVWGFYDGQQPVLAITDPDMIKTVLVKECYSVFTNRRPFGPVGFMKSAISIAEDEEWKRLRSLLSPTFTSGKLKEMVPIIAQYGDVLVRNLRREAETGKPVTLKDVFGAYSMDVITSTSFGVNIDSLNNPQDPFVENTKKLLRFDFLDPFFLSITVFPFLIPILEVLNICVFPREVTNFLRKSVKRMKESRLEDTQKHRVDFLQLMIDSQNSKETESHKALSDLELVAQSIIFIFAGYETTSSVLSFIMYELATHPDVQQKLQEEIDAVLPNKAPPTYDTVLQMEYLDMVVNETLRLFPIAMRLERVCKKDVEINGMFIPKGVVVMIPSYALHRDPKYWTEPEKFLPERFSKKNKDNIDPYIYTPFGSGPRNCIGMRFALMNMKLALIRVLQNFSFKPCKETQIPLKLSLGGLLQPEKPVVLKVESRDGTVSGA

Q: Which Ki (CYP1A2 [1]) does the source give for `C[C@H]1COc2c(N3CCN(C)CC3)c(F)cc3c(=O)c(C(=O)O)cn1c23` [levofloxacin] here?
A: The Ki was 4.73 µM.

Q: And the “Inhibition mechanism (Lineweaver-Burk plots)” value (from here on “Inhibition mechanism”) (HLM)?
A: The value was “mixed inhibitors”.

Q: And the Ki [2]?
A: The Ki was 4.87 µM.

Q: For `CC(=O)N1CCN(c2ccc(OCC3COC(Cn4ccnc4)(c4ccc(Cl)cc4Cl)O3)cc2)CC1` (stereo not drawn) [ketoconazole], which “Inhibition mechanism” value (HLM) is on record?
A: Its value is “mixed inhibitors”.

Q: Which microsomal CLint (in vitro) does the source give for `COc1cc2c(Oc3ccc4[nH]c(C)cc4c3F)ccnc2cc1OCC1(N)CC1` [Anlotinib] here?
A: Its microsomal CLint is 18 µL/min/mg.

Q: What about the “fm, share of anlotinib metabolized by CYP1A2” value (CYP1A2 [3]) of the same compound?
A: The value was 35%.

Q: And the “fm, share of anlotinib metabolized by CYP3A5” value (CYP3A5 [4])?
A: The value was 29%.

Q: What about the CLpo [5] of the same compound?
A: The CLpo was 11.014 L/h.

Q: And the P-gp substrate characteristics (P-gp)?
A: Its P-gp substrate characteristics is “non-substrate”.

Q: And the “fm, share of anlotinib metabolized by CYP3A4” value (human recombinant CYP3A4)?
A: The value was 35%.

Q: Which results are given for `CO[C@H]1/C=C/O[C@@]2(C)Oc3c(C)c(O)c4c(O)c(c(/C=N/N5CCN(C)CC5)c(O)c4c3C2=O)NC(=O)/C(C)=C\C=C\[C@H](C)[C@H](O)[C@@H](C)[C@@H](O)[C@@H](C)[C@H](OC(C)=O)[C@@H]1C` [rifampicin]?
A: AUC0–∞ of erlotinib reduced to (fold) by the labelled perpetrator [6]: 0.33 fold; Cmax of erlotinib reduced to (fold) by the labelled perpetrator [6]: 0.71 fold

Q: With `CC[C@H]1OC(=O)[C@H](C)[C@@H](O[C@H]2C[C@@](C)(OC)[C@@H](O)[C@H](C)O2)[C@H](C)[C@@H](O[C@@H]2O[C@H](C)C[C@H](N(C)C)[C@H]2O)[C@](C)(OC)C[C@@H](C)C(=O)[C@H](C)[C@@H](O)[C@]1(C)O` [clarithromycin] as the compound, how does the Ki (CYP3A5 [7]) read?
A: The Ki was 6.88 µM.

Q: What about the “Inhibition mechanism” value (HLM) of the same compound?
A: Its value is “mixed inhibitors”.

Q: And the Ki [2]?
A: Its Ki is 3.02 µM.
